From patent publication US7317027B2, “Azaindole-derivatives as factor Xa inhibitors” (Sanofi-Aventis Deutschland GmbH, priority 2003, dated 2008)

Biological target: T1, human factor Xa (Homo sapiens, UniProt P00742)
T1 construct: 25 μl human factor Xa (Enzyme Research Laboratories, Inc; South Bend, Ind.) in TBS-PEG; purchased Enzyme Research Laboratories, Inc; South Bend, Ind
Experiment: Factor Xa assay (chromogenic, substrate S-2765)
Assay type: biochemical
Details: inhibition constant for inhibition of factor Xa; IC50 corrected for substrate competition; 0.5 nM enzyme, 140 μM S-2765, 25° C., pH 7.8; read-out: Ki(FXa)
Experimental: The ability of the compounds of the formula I to inhibit factor Xa or factor VIIa or other enzymes like thrombin, plasmin, or trypsin can be assessed by determining the concentration of the compound of the formula I that inhibits enzyme activity by 50%, i. e. the IC50 value, which was related to the inhibition constant Ki. Purified enzymes were used in chromogenic assays. The concentration of inhibitor that causes a 50% decrease in the rate of substrate hydrolysis was determined by linear regression after plotting the relative rates of hydrolysis (compared to the uninhibited control) versus the log of the concentration of the compound of formula I. For calculating the inhibition constant Ki, the IC50 value was corrected for competition with substrate using the formula Ki=IC50/{1+(substrate concentration/Km)} wherein Km is the Michaelis-Menten constant (Chen and Prusoff, Biochem. Pharmacol. 22 (1973), 3099-3108; I. H. Segal, Enzyme Kinetics, 1975, John Wiley & Sons, New York, 100-125; which were incorporated herein by reference). a) Factor Xa Assay
In the assay for determining the inhibition of factor Xa activity TBS-PEG buffer (50 mM Tris-HCl, pH 7.8, 200 mM NaCl, 0.05% (w/v) PEG-8000, 0.02% (w/v) NaN3) was used. The IC50 was determined by combining in appropriate wells of a Costar half-area microtiter plate 25 μl human factor Xa (Enzyme Research Laboratories, Inc.; South Bend, Ind.) in TBS-PEG; 40 μl 10% (v/v) DMSO in TBS-PEG (uninhibited control) or various concentrations of the compound to be tested diluted in 10% (v/v) DMSO in TBS-PEG; and substrate S-2765 (N(α)-benzyloxycarbonyl-D-Arg-Gly-L-Arg-p-nitroanilide; Kabi Pharmacia, Inc.; Franklin, Ohio) in TBS-PEG.
The assay was performed by pre-incubating the compound of formula I plus enzyme for 10 min. Then the assay was initiated by adding substrate to obtain a final volume of 100 μl. The initial velocity of chromogenic substrate hydrolysis was measured by the change in absorbance at 405 nm using a Biotek Instruments kinetic plate reader (Ceres UV900HDi) at 25° C. during the linear portion of the time course (usually 1.5 min after addition of substrate). The enzyme concentration was 0.5 nM and substrate concentration was 140 μM.

T1 sequence (P00742 235-488 limits assumed): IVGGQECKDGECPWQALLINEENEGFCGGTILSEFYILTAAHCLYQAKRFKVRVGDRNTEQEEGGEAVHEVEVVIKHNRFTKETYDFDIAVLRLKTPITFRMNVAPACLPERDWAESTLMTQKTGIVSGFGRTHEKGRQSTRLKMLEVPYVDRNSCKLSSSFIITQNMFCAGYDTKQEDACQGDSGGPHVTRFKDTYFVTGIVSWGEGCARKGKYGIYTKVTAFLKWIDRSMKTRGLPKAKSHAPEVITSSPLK
T1 sequence (P00742 41-179 partner limits assumed): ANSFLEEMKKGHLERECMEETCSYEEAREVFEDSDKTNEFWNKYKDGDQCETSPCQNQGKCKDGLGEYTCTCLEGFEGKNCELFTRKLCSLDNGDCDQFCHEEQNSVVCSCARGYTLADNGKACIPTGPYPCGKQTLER

Row | SMILES | Ki
1 | CC(C)N1CCC(NC(=O)c2cc3[nH]c(=O)ccc3n2Cc2cc(-c3ccc(Cl)s3)on2)CC1 [Example 7, 1-[5-(5-Chloro-thiophen-2-yl)-isoxazol-3-ylmethyl]-5-oxo-4,5-dihydro-1H-pyrrolo[3,2-b]pyridine-2-carboxylic acid (1-isopropyl-piperidin-4-yl)-amide] | 23 nM
2 | O=C(O)c1ccc2c(cc(C(=O)NC3CCN(c4ccncc4)CC3)n2Cc2cc(-c3ccc(Cl)s3)on2)n1 [Example 9, 1-[5-(5-Chloro-thiophen-2-yl)-isoxazol-3-ylmethyl]-2-(3,4,5,6-tetrahydro-2H-[1,4′]bipyridyl-4-ylcarbamoyl)-1H-pyrrolo[3,2-b]pyridine-5-carboxylic acid] | 85 nM
3 | CC(C)N1CCC(NC(=O)c2cc3nc(C(=O)O)ccc3n2Cc2cc(-c3ccc(Cl)s3)on2)CC1 [Example 6, 1-[5-(5-Chloro-thiophen-2-yl)-isoxazol-3-ylmethyl]-2-(1-isopropyl-piperidin-4-ylcarbamoyl)-1H-pyrrolo[3,2-b]pyridine-5-carboxylic acid] | 10 nM
4 | CC(C)N1CCC(NC(=O)c2cc3ncccc3n2Cc2cc(-c3ccc(Cl)s3)on2)CC1 [Example 5, 1-[5-(5-Chloro-thiophen-2-yl)-isoxazol-3-ylmethyl]-1H-pyrrolo[3,2-b]pyridine-2-carboxylic acid (1-isopropyl-piperidin-4-yl)-amide] | 4 nM
5 | CC(C)N1CCC(NC(=O)c2cc3cccnc3n2Cc2cc(-c3ccc(Cl)s3)on2)CC1 [Example 1, 1-[5-(5-Chloro-thiophen-2-yl)-isoxazol-3-ylmethyl]-1H-pyrrolo[2,3-b]pyridine-2-carboxylic acid (1-isopropyl-piperidin-4-yl)-amide] | 6 nM
6 | CC(C)N1CCC(NC(=O)c2cc3cc(C(=O)O)cnc3n2Cc2cc(-c3ccc(Cl)s3)on2)CC1 [Example 3, 1-[5-(5-Chloro-thiophen-2-yl)-isoxazol-3-ylmethyl]-2-(1-isopropyl-piperidin-4-ylcarbamoyl)-1H-pyrrolo[2,3-b]pyridine-5-carboxylic acid] | 67 nM
7 | CC(C)N1CCC(NC(=O)c2cc3cc(C(N)=O)cnc3n2Cc2cc(-c3ccc(Cl)s3)on2)CC1 [Example 4, 1-[5-(5-Chloro-thiophen-2-yl)-isoxazol-3-ylmethyl]-1H-pyrrolo[2,3-b]pyridine-2,5-dicarboxylic acid 5-amide 2-[(1-isopropyl-piperidin-4-yl)-amide]] | 70 nM

Results, then the compound that gave them:

Row | Ki | SMILES
8 | 44 nM | CC(C)N1CCC(NC(=O)c2cc3cc(OCCO)ncc3n2CC(=O)Nc2ccc(Cl)cn2)CC1 [Example 13, 1-[(5-Chloro-pyridin-2-ylcarbamoyl)-methyl]-5-(2-hydroxy-ethoxy)-1H-pyrrolo[2,3-c]pyridine-2-carboxylic acid (1-isopropyl-piperidin-4-yl)-amide]
9 | 47 nM | CC(C)N1CCC(NC(=O)c2cc3cc(OCCO)ncc3n2Cc2cc(-c3ccc(Cl)s3)on2)CC1 [Example 11, 1-[5-(5-Chloro-thiophen-2-yl)-isoxazol-3-ylmethyl]-5-(2-hydroxy-ethoxy)-1H-pyrrolo[2,3-c]pyridine-2-carboxylic acid (1-isopropyl-piperidin-4-yl)-amide]
10 | 55 nM | COC(=O)c1cnc2c(c1)cc(C(=O)NC1CCN(C(C)C)CC1)n2Cc1cc(-c2ccc(Cl)s2)on1 [Example 2, 1-[5-(5-Chloro-thiophen-2-yl)-isoxazol-3-ylmethyl]-2-(1-isopropyl-piperidin-4-ylcarbamoyl)-1H-pyrrolo[2,3-b]pyridine-5-carboxylic acid methyl ester]
